{"source": "ChEMBL document CHEMBL1201862", "about": "“PubChem BioAssay data set” (2004)", "key": {"[1]": {"assay": "NIH-3T3 fibroblast cytotoxicity, dose response, cytotoxicity control, cell-based, fluorescence, Alamar Blue, secondary assay (AID 2327);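 note: NIH-3T3 mouse fibroblasts cultured with fluconazole at 8 µg/mL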", "assay_type": "functional"}, "[2]": {"target": "Lysine-specific demethylase 4C (Homo sapiens, UniProt Q9H3R0)", "assay": "inhibition of JMJD2C H3K9me3 demethylation – biochemical, DELFIA europium, cherry-picked samples, dose response (AID 488835)", "assay_type": "functional"}, "[3]": {"assay": "fluconazole-exposed Candida albicans growth modulators – fluorescence, retest, confirmation (AID 2467)", "assay_type": "functional, cell-based"}, "[4]": {"target": "Nucleotide-binding oligomerization domain-containing protein 2 (Homo sapiens, UniProt Q9HC29)", "assay": "inhibition of MDP-driven NOD2 NF-kB reporter – cell-based, set 3, SAR follow-up (AID 2799)", "assay_type": "functional"}, "HEK293": {"tested_on": "HEK293", "assay": "SAR analysis of compounds that are cytotoxic to HEK293 - Set 3. [Related pubchem assays (depositor defined):AID1575, AID1578, AID1848, AID1849, AID2001, AID2333, AID2334, AID2335, AID2337, AID2469]", "assay_type": "functional, cell-based", "conditions": "Homo sapiens"}, "[5]": {"target": "T1, Nucleotide-binding oligomerization domain-containing protein 1 (Homo sapiens, UniProt Q9Y239)", "T1 sequence (Q9Y239 whole entry)": "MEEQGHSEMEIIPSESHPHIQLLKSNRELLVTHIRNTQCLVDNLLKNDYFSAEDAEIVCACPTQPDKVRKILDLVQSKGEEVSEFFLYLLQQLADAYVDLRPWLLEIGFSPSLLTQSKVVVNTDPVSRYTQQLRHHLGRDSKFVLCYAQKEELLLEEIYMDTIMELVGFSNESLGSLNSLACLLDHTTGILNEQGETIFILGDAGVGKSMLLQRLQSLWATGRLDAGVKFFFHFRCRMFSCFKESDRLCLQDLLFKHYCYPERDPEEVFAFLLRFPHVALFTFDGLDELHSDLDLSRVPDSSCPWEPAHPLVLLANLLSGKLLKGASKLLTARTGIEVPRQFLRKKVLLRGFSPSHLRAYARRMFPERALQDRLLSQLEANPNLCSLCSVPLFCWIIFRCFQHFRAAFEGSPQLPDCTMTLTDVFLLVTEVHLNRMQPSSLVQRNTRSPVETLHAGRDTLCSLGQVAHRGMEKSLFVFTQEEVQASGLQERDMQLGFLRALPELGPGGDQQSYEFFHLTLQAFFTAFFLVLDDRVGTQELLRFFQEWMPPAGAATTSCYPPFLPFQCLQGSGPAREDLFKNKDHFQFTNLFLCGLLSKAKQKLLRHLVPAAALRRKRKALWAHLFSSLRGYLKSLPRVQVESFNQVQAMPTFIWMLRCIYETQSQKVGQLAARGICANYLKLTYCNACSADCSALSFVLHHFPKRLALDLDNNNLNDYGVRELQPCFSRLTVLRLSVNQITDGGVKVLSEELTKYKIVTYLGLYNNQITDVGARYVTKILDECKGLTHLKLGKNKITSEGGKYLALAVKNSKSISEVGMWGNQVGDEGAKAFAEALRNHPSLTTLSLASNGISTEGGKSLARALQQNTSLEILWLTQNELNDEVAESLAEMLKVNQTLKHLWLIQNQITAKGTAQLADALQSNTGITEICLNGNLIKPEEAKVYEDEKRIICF", "assay": "SAR analysis of compounds that inhibit NOD1 - Set 3. [Related pubchem assays (depositor defined):AID1566, AID1575, AID1578, AID1849, AID1852, AID2333, AID2335, AID2466]", "assay_type": "functional"}, "Tumor necrosis factor": {"target": "Tumor necrosis factor (Homo sapiens, UniProt P01375)", "sequence (P01375 whole entry)": "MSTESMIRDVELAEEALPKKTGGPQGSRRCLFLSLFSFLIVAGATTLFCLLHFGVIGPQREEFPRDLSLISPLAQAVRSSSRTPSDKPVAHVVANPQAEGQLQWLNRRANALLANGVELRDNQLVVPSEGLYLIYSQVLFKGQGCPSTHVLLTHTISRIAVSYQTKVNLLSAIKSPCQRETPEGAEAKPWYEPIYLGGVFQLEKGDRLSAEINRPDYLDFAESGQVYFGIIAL", "assay": "analog potency on TNFa NF-kB signaling – cell-based, set 3, SAR follow-up (AID 2801)", "assay_type": "functional"}, "Exodeoxyribonuclease V": {"target": "Exodeoxyribonuclease V (Escherichia coli (strain K12), UniProt P04993+P07648+P08394)", "assay": "RecBCD inhibition via phage-restricted bacterial growth – absorbance, V66 E. coli, mutant T4 phage, counter-screen for AddAB inhibitor project, dose response (AID 492957)", "assay_type": "functional, cell-based, Escherichia coli str. K-12 substr. MG1655"}, "[6]": {"assay": "Counterscreen for AddAB inhibitors: absorbance-based bacterial cell-based high throughput dose response assay for inhibitors of bacterial viability. [Related pubchem assays (depositor defined):AID435030, AID449728, AID449731, AID488942, AID488955, AID488956]", "assay_type": "functional"}, "Beta-galactosidase": {"target": "Beta-galactosidase (Escherichia coli, UniProt Q8VNN2)", "sequence (Q8VNN2 whole entry)": "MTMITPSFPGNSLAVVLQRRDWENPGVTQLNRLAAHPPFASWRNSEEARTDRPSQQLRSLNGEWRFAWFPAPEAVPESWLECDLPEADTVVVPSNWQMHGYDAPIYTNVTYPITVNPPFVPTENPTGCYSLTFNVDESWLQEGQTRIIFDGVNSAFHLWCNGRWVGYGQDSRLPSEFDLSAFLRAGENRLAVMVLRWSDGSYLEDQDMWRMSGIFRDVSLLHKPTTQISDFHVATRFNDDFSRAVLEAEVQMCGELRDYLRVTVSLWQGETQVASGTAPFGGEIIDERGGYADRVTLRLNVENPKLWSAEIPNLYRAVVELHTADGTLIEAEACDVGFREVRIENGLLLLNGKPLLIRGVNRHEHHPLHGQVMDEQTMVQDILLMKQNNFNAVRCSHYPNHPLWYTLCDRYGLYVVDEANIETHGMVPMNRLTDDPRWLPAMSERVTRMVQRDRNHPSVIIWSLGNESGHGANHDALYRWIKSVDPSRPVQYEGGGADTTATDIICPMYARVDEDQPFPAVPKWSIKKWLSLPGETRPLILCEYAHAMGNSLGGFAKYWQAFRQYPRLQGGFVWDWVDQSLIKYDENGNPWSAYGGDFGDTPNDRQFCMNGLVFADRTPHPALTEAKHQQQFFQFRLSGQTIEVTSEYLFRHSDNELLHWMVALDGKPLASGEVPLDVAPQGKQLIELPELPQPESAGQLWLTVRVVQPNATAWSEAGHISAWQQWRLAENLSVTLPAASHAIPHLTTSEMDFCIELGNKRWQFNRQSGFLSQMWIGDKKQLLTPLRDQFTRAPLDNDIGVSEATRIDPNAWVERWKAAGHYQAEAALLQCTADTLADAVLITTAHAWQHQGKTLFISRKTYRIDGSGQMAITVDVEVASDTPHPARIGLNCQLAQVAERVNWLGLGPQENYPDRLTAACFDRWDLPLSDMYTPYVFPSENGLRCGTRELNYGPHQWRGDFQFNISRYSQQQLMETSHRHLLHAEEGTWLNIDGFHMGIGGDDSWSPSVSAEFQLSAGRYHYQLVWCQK", "assay": "detection-enzyme interference by beta-gal modulators – biochemical, E. coli enzyme, set 3, artefact control for CCR6 antagonist project, dose response (AID 504712)", "assay_type": "functional"}, "[7]": {"target": "T2, Voltage-gated N-type calcium channel alpha-1B subunit/Amyloid beta A4 precursor protein-binding family A member 1 (Homo sapiens, UniProt Q00975+Q02410)", "T2 sequence (Q00975 whole entry)": "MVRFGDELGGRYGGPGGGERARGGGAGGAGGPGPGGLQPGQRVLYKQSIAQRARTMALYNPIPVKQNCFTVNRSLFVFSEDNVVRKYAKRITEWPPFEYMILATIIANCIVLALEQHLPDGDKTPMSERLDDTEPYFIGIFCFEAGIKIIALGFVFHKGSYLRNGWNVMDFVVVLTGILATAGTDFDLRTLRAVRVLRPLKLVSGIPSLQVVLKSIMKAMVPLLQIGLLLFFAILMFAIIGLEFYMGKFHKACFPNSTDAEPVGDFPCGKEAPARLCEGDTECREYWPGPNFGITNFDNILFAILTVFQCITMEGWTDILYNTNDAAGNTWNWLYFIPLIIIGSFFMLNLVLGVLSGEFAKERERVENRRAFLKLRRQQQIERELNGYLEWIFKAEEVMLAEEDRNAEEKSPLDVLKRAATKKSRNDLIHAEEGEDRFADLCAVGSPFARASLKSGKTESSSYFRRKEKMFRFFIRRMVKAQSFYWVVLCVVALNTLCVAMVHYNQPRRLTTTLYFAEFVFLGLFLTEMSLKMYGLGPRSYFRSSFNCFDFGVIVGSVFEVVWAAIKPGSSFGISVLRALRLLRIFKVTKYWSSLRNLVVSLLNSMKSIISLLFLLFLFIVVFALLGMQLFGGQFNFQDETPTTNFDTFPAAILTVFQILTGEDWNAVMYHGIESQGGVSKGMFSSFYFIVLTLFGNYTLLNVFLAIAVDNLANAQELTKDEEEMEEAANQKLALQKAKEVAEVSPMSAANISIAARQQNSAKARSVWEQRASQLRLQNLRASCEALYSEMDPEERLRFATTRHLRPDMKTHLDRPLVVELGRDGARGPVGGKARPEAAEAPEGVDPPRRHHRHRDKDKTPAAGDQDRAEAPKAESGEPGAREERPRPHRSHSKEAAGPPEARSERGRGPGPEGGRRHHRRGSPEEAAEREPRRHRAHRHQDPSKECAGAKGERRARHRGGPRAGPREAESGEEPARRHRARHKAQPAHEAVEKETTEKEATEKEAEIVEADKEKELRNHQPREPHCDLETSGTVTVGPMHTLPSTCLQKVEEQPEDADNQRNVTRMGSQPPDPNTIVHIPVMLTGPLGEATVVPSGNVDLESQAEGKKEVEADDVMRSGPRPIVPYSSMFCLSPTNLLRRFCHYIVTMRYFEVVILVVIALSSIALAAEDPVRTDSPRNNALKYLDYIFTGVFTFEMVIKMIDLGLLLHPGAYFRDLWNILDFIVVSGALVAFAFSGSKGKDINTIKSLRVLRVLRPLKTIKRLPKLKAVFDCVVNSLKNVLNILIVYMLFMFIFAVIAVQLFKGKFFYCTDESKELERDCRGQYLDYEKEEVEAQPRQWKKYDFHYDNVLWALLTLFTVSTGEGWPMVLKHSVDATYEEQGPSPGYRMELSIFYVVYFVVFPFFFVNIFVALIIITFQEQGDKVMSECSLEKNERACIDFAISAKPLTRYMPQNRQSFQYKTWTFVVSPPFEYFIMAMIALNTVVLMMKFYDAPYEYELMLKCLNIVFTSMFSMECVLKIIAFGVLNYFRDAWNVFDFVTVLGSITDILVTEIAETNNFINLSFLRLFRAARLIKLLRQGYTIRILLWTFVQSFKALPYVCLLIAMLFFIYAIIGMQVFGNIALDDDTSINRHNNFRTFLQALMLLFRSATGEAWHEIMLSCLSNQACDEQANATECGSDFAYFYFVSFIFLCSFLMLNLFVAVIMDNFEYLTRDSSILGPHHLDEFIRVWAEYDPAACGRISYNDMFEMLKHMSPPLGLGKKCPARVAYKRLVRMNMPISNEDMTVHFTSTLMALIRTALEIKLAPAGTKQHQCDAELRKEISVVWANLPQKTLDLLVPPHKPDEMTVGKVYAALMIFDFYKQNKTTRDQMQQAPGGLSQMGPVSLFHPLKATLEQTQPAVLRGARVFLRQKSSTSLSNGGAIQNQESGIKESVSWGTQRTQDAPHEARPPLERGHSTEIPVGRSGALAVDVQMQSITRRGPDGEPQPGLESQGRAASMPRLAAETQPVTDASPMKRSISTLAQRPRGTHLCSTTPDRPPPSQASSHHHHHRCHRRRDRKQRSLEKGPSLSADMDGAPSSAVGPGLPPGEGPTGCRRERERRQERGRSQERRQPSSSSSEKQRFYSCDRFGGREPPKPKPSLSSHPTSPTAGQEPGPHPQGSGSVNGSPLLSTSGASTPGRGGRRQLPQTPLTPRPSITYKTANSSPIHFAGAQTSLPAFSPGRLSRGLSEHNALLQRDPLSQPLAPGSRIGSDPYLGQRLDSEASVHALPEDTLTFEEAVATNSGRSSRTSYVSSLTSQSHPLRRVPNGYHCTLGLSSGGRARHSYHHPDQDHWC", "T2 sequence (Q02410 whole entry)": "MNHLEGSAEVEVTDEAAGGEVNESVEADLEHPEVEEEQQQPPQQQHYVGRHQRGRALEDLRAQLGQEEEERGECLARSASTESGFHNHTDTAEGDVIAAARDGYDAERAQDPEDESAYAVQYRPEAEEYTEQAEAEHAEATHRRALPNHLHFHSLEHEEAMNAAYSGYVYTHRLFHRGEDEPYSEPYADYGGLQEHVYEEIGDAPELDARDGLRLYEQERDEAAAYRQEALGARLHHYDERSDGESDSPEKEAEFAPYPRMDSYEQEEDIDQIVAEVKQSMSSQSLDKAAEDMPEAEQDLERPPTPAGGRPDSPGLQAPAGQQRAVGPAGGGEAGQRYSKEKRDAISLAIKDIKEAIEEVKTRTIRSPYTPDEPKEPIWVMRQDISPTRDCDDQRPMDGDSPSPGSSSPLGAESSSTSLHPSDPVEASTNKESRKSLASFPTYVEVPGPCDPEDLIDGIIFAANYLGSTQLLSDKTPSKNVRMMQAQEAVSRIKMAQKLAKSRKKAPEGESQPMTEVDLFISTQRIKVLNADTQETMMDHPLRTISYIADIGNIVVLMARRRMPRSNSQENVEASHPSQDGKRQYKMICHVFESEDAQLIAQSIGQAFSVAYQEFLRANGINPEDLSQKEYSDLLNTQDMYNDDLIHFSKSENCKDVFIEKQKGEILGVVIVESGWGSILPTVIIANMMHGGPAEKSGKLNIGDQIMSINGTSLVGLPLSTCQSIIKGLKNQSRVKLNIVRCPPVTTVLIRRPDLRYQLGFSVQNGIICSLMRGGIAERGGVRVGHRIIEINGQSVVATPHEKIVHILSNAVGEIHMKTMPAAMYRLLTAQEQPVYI", "assay_type": "protein assay"}, "Large T antigen": {"target": "Large T antigen (Simian virus 40, UniProt P03070)", "assay_type": "functional, Betapolyomavirus macacae"}, "[8]": {"assay": "viability of PTEN-deleted HCT116 cells – cell-based, HCT116 PTEN knockout, dose response (AID 1047);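 note: HCT116 colon tumor cells with PTEN knocked out; cells exposed to compound for 60 hours before readout; potency for loss of cell viability measured by luminescence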", "assay_type": "functional"}, "[9]": {"target": "T2, Voltage-gated N-type calcium channel alpha-1B subunit/Amyloid beta A4 precursor protein-binding family A member 1", "assay_type": "protein assay", "remark": "listed apart in the source"}, "[10]": {"assay": "Fluorescence-based cell-based high throughput dose response assay for inhibitors of the interaction of nucleotide-binding oligomerization domain containing 2 (NOD2) and the receptor-interacting serine-threonine kinase 2 (RIPK2).", "assay_type": "functional", "conditions": "Homo sapiens"}, "[11]": {"target": "Glucose-6-phosphate 1-dehydrogenase (Homo sapiens, UniProt P11413)", "sequence (P11413 whole entry)": "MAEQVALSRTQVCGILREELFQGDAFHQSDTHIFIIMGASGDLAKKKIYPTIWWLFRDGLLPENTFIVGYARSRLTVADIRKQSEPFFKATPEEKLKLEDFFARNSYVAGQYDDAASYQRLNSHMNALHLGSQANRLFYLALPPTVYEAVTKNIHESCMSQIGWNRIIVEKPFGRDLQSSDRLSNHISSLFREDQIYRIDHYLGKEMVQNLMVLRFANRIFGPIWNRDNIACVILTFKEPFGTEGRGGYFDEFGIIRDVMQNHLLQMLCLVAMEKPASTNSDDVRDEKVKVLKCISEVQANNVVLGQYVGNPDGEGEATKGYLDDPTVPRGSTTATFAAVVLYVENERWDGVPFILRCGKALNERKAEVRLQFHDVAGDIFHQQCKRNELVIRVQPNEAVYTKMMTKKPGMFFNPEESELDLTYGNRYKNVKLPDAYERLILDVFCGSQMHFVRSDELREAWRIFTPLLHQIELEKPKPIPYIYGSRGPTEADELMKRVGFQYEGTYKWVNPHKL", "assay": "inhibition of Homo sapiens G6PD, dose series – biochemical, fluorescence, selectivity assay for P. falciparum G6PD inhibitor project, dose response (AID 504792)", "assay_type": "functional"}, "[12]": {"target": "T3, Mannose-6-phosphate isomerase (Homo sapiens, UniProt P34949)", "T3 sequence (P34949 whole entry)": "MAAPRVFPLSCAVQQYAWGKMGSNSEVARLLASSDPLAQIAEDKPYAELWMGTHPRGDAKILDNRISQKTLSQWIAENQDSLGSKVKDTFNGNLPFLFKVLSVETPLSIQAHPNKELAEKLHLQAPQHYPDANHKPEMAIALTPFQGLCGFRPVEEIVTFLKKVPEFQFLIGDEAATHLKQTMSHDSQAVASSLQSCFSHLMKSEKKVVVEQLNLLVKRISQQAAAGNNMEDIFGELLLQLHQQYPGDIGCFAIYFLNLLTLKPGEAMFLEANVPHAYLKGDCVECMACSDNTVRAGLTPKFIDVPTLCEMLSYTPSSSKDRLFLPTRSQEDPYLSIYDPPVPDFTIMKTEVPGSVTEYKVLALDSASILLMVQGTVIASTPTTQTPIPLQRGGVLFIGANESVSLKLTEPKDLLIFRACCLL", "assay": "MPI enzyme activity inhibition – biochemical, fluorescence intensity, coupled assay, primary screen (AID 1209)"}, "[13]": {"assay": "antiviral efficacy and BSC cell toxicity – BSC cells, SV40 T antigen inhibitor project, confirmation (AID 2615)", "assay_type": "functional, cell-based"}, "[14]": {"assay": "viability of HCT116 lacking mutant beta-catenin – cell-based, human colon tumor, dose response (AID 1045);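 note: HCT116 colon tumor cells with beta catenin knocked out; cells exposed to compound for 60 hours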", "assay_type": "functional"}}, "note": "The source made the active and inactive calls.", "data": [{"smiles": "FC(F)(F)c1ccccc1N=C(S)NN=C1CCCCCC1", "values": [{"measurement": "EC50", "setting": "[1]", "value": "54 µM (active)"}, {"measurement": "AC50", "setting": "[2]", "value": "6.8 µM (active)"}, {"measurement": "EC50", "setting": "[3]", "value": "> 38 µM (not active)"}]}, {"smiles": "CCCCn1c(SCCCc2ccccc2)nc2c1c(=O)[nH]c(=O)n2C", "values": [{"measurement": "IC50", "setting": "[4]", "value": "11.9 µM (active)"}, {"measurement": "IC50", "setting": "HEK293", "value": "> 20 µM (inactive)"}, {"measurement": "IC50", "setting": "[5]", "value": "> 20 µM (inactive)"}, {"measurement": "IC50", "setting": "Tumor necrosis factor", "value": "17.7 µM (active)"}]}, {"smiles": "O=C(NNC(=O)c1cc2ccccc2cc1O)Nc1ccc(Br)cc1", "values": [{"measurement": "IC50", "setting": "Exodeoxyribonuclease V", "value": "> 119 µM (inactive)"}, {"measurement": "IC50", "setting": "[6]", "value": "> 119 µM (inactive)"}]}, {"smiles": "ClC(Cl)(c1nnnn1-c1ccccc1)c1nnnn1-c1ccccc1", "values": [{"measurement": "IC50", "setting": "Beta-galactosidase", "value": "> 66.6 µM (inactive)"}, {"measurement": "IC50", "setting": "[7]", "value": "4.38 µM (active)"}, {"measurement": "IC50", "setting": "Large T antigen", "value": "5.47 µM (active)"}, {"measurement": "EC50", "setting": "[8]", "value": "10.8 µM (active)"}, {"measurement": "IC50", "setting": "[9]", "value": "5.93 µM (active)"}, {"measurement": "IC50", "setting": "[10]", "value": "5.41 µM (active)"}, {"measurement": "IC50", "setting": "[11]", "value": "> 80 µM (inactive)"}, {"measurement": "IC50", "setting": "[12]", "value": "> 50 µM (not active)"}, {"measurement": "IC50", "setting": "[13]", "value": "10 µM (active)"}, {"measurement": "EC50", "setting": "[14]", "value": "9.79 µM (active)"}]}]}
